The target in this assay is one or more of HDAC-4, HDAC-5, HDAC-6, HDAC-7, HDAC-8, HDAC-9, HDAC-10 and HDAC-11. Kind of assay: Inhibition of histone deacetylase enzymatic activity (summary statement over isoforms). It counts as biochemical. The note with it: Table 3, selected examples; HDAC isoform not given. The procedure: The following protocol is used to assay the compounds of the invention.
The mixture is pre-incubated for 5 minutes at room temperature. The reaction is started by bringing the temperature to 37° C. and adding 15 μL substrate. Total reaction volume is 50 μL.
A 30 mM stock of Boc-Lys(trifluoroacetyl)-AMC substrate is prepared in DMSO. […] Reaction is started by adding 18 μL Boc-Lys(trifluoroacetyl)-AMC substrate and incubating at 37° C. for 20-30 minutes. The reaction is stopped by adding 50 μL trypsin (1 mg/mL) and a known HDAC inhibitor.

Bounds are passed on as bounds.

In US9096565B2, “Inhibitors of histone deacetylase” (MethylGene Inc., priority 2007, dated 2015) one finds IC50 data, which are given here for 45 compounds.

`Cc1ccsc1C(=O)Nc1cccc(C(C(=O)NO)c2ccccc2)c1` (stereo not drawn) [Compound 2-66, N-(3-(2-(hydroxyamino)-2-oxo-1-phenylethyl)phenyl)-3-methylthiophene-2-carboxamide] displayed an IC50 of 1000 to 15000 nM.

The compound `O=C(Nc1ccc(C(C(=O)NO)c2ccccc2)cc1)c1ccc2c(c1)OCO2` (stereo not drawn) [Compound 2-75, N-(4-(2-(hydroxyamino)-2-oxo-1-phenylethyl)phenyl)benzo[d][1,3]dioxole-5-carboxamide] registered an IC50 of under 1000 nM.

Compound `CCSc1ccc(-c2cccc(C(C(=O)NO)c3ccccc3)c2)cc1` (stereo not drawn) [Compound 2-107, 2-(4′-(ethylthio)biphenyl-3-yl)-N-hydroxy-2-phenylacetamide] came in with an IC50 of under 1000 nM.

Compound `O=C(NO)C(c1ccccc1)c1ccc(N2CCCCC2)cc1` (stereo not drawn) [Compound 5-70, N-hydroxy-2-phenyl-2-(4-(piperidin-1-yl)phenyl)acetamide] had an IC50 of under 1000 nM.

The compound `COc1ccc(C2CCN(C(C(=O)NO)c3ccccc3)CC2)cc1` (stereo not drawn) [Compound 5-24, N-hydroxy-2-(4-(4-methoxyphenyl)piperidin-1-yl)-2-phenylacetamide] registered an IC50 of under 1000 nM.

`O=C(NO)C(c1ccccc1)N1CCC(c2ccccc2)CC1` (stereo not drawn) [Compound 1-44, N-hydroxy-2-phenyl-2-(4-phenylpiperidin-1-yl)acetamide] displayed an IC50 of under 1000 nM.

Turning to `O=C(NO)C(Sc1nc(-c2ccccc2)c(-c2ccccc2)[nH]1)c1ccccc1` (stereo not drawn) [Compound 1-42, 2-(4,5-diphenyl-1H-imidazol-2-ylthio)-N-hydroxy-2-phenylacetamide], the half-inhibitory concentration (IC50) is 1000 to 15000 nM.

As for `O=C(NO)C1c2ccccc2CCc2ccccc21` [Compound 5-31], the IC50 was in the range of 1000 to 15000 nM.

`O=C(NO)C(c1ccccc1)c1ccc(CCCCc2ccccc2)cc1` (stereo not drawn) [Compound 5-68, N-hydroxy-2-phenyl-2-(4-(4-phenylbutyl)phenyl)acetamide] had an IC50 of under 1000 nM.

For `CC(C(=O)NO)(c1ccccc1)c1ccccc1` [Compound 1-14, N-hydroxy-2,2-diphenylpropanamide], the IC50 was under 1000 nM.

In turn, `O=C(NO)C(Oc1ccccc1)c1ccccc1` (stereo not drawn) [Compound 1-2, N-hydroxy-2-phenoxy-2-phenylacetamide] had an IC50 of under 1000 nM.

In the case of `O=C(NO)C(c1ccccc1)c1ccc(OCc2cccc(C(F)(F)F)c2)cc1` (stereo not drawn) [Compound 3-71, N-hydroxy-2-phenyl-2-(4-(3-(trifluoromethyl)benzyloxy)phenyl)acetamide], the IC50 was under 1000 nM.

`O=C(Nc1cccc(C(C(=O)NO)c2ccccc2)c1)c1cccc(Cl)c1` (stereo not drawn) [Compound 2-73, 3-chloro-N-(3-(2-(hydroxyamino)-2-oxo-1-phenylethyl)phenyl)benzamide]: the IC50 fell in the range of 1000 to 15000 nM.

The compound `O=C(Nc1cccc(C(C(=O)NO)c2ccccc2)c1)c1ccc(F)cc1` (stereo not drawn) [Compound 2-62, 4-fluoro-N-(3-(2-(hydroxyamino)-2-oxo-1-phenylethyl)phenyl)benzamide] yielded an IC50 of under 1000 nM.

`COc1ccc(COc2cccc(C(C(=O)NO)c3ccccc3)c2)cc1` (stereo not drawn) [Compound 3-6, N-hydroxy-2-(3-(4-methoxybenzyloxy)phenyl)-2-phenylacetamide]: the IC50 is under 1000 nM.

`Cc1[nH]c2ccccc2c1CN1CCC(Oc2ccc(C(C(=O)NO)c3ccccc3)cc2)CC1` (stereo not drawn) [Compound 5-132, N-hydroxy-2-(4-(1-((2-methyl-1H-indol-3-yl)methyl)piperidin-4-yloxy)phenyl)-2-phenylacetamide] yielded an IC50 of under 1000 nM.

Regarding `O=C(NO)C(Sc1ncccn1)c1ccccc1` (stereo not drawn) [Compound 6-29, N-hydroxy-2-phenyl-2-(pyrimidin-2-ylthio)acetamide], the IC50 lay within 1000 to 15000 nM.

The compound `Cc1noc(C)c1COc1ccc(C(C(=O)NO)c2ccccc2)cc1` (stereo not drawn) [Compound 3-51, 2-(4-((3,5-dimethylisoxazol-4-yl)methoxy)phenyl)-N-hydroxy-2-phenylacetamide] came in with an IC50 of under 1000 nM.

Compound `CN(C)c1ccc(C(C(=O)NO)c2ccccc2)cc1` (stereo not drawn) [Compound 1-29, 2-(4-(dimethylamino)phenyl)-N-hydroxy-2-phenylacetamide] had an IC50 of under 1000 nM.

Take `O=C(NO)C(c1ccccc1)c1nnc(-c2ccc3[nH]ccc3c2)s1` (stereo not drawn) [Compound 5-55, 2-(5-(1H-indol-5-yl)-1,3,4-thiadiazol-2-yl)-N-hydroxy-2-phenylacetamide]: the IC50 is under 1000 nM.

`CC(C)CCCOc1ccc(C(C(=O)NO)c2ccccc2)cc1` (stereo not drawn) [Compound 3-56, N-hydroxy-2-(4-(4-methylpentyloxy)phenyl)-2-phenylacetamide] showed an IC50 of under 1000 nM.

For `CC(=O)Nc1cccc(C(C(=O)NO)c2ccccc2)c1` (stereo not drawn) [Compound 2-52, 2-(3-acetamidophenyl)-N-hydroxy-2-phenylacetamide], the 50% inhibitory concentration (IC50) is 1000 to 15000 nM.

`O=C(NO)C1c2ccccc2N(Cc2ccccc2)c2ccccc21` [Compound 5-56, 10-benzyl-N-hydroxy-9,10-dihydroacridine-9-carboxamide] yielded a concentration for half-maximal inhibition (IC50) of under 1000 nM.

`O=CN(O)C(c1ccccc1)c1ccc(OCc2ccccc2)cc1` (stereo not drawn) [Compound 5-98, N-((4-(benzyloxy)phenyl)(phenyl)methyl)-N-hydroxyformamide] gave an IC50 of 1000 to 15000 nM.

Regarding `O=C(NO)C(c1ccccc1)c1ccc(N2CCOCC2)cc1` (stereo not drawn) [Compound 5-22, N-hydroxy-2-(4-morpholinophenyl)-2-phenylacetamide], the IC50 was under 1000 nM.

For the compound `CN(C)c1ccc(-c2cccc(C(C(=O)NO)c3ccccc3)c2)cc1` (stereo not drawn) [Compound 2-105, 2-(4′-(dimethylamino)biphenyl-3-yl)-N-hydroxy-2-phenylacetamide], the half-inhibitory concentration (IC50) was under 1000 nM.

Take `O=C(NO)C(c1ccccc1)N1CCN(C(=O)c2ccco2)CC1` (stereo not drawn) [Compound 2-27, 2-(4-(furan-2-carbonyl)piperazin-1-yl)-N-hydroxy-2-phenylacetamide]: the half-inhibitory concentration (IC50) lay within 1000 to 15000 nM.

For `O=C(NO)C(c1ccccc1)c1ccc(OC2CCN(CC3CC3)CC2)cc1` (stereo not drawn) [Compound 5-130, 2-(4-(1-(cyclopropylmethyl)piperidin-4-yloxy)phenyl)-N-hydroxy-2-phenylacetamide], the IC50 was under 1000 nM.

The compound `CN(C)CCCOc1cccc(C(C(=O)NO)c2ccccc2)c1` (stereo not drawn) [Compound 3-15, 2-(3-(3-(dimethylamino)propoxy)phenyl)-N-hydroxy-2-phenylacetamide] showed an IC50 of under 1000 nM.

In the case of `Cn1cnc(S(=O)(=O)N2CCCN(C(C(=O)NO)c3ccccc3)CC2)c1` (stereo not drawn) [Compound 2-39, N-hydroxy-2-(4-(1-methyl-1H-imidazol-4-ylsulfonyl)-1,4-diazepan-1-yl)-2-phenylacetamide], the IC50 fell in the range of 1000 to 15000 nM.

For the compound `COCCOc1ccc(C(C(=O)NO)c2ccccc2)cc1` (stereo not drawn) [Compound 3-50, N-hydroxy-2-(4-(2-methoxyethoxy)phenyl)-2-phenylacetamide], the IC50 was under 1000 nM.

For the compound `CN1CCC(Oc2ccc(C(C(=O)NO)c3ccccc3)cc2)CC1` (stereo not drawn) [Compound 5-99, N-hydroxy-2-(4-(1-methylpiperidin-4-yloxy)phenyl)-2-phenylacetamide], the 50% inhibitory concentration (IC50) was under 1000 nM.

Take `Cc1cc(C(=O)Nc2ccc(C(C(=O)NO)c3ccccc3)cc2)c(C)o1` (stereo not drawn) [Compound 2-63, N-(4-(2-(hydroxyamino)-2-oxo-1-phenylethyl)phenyl)-2,5-dimethylfuran-3-carboxamide]: the IC50 was under 1000 nM.

In the case of `O=C(NO)C(c1ccccc1)c1ccc(O)cc1` (stereo not drawn) [Compound 5-36, N-hydroxy-2-(4-hydroxyphenyl)-2-phenylacetamide], the IC50 is under 1000 nM.

`COc1cccc(C(C(=O)NO)c2ccc(N3CCOCC3)cc2)c1` (stereo not drawn) [Compound 5-113, N-hydroxy-2-(3-methoxyphenyl)-2-(4-morpholinophenyl)acetamide] returned an IC50 of under 1000 nM.

Turning to `CCN(Cc1ccccc1)c1ccc(C(C(=O)NO)c2ccccc2)cc1` (stereo not drawn) [Compound 5-44, 2-(4-(benzyl(ethyl)amino)phenyl)-N-hydroxy-2-phenylacetamide], the IC50 was under 1000 nM.

For `O=C(NO)C(c1ccccc1)C1CCN(C(=O)c2ccccc2)CC1` (stereo not drawn) [Compound 5-127, 2-(1-benzoylpiperidin-4-yl)-N-hydroxy-2-phenylacetamide], the half-maximal inhibitory concentration (IC50) was 1000 to 15000 nM.

`CN(C)CCOc1cccc(C(C(=O)NO)c2ccccc2)c1` (stereo not drawn) [Compound 3-88, 2-(3-(2-(dimethylamino)ethoxy)phenyl)-N-hydroxy-2-phenylacetamide] registered an IC50 of 1000 to 15000 nM.

Compound `O=C(NO)C1(c2ccc(F)cc2)CCCCC1` [Compound 5-119, 1-(4-fluorophenyl)-N-hydroxycyclohexanecarboxamide] came in with a 50% inhibitory concentration (IC50) of 1000 to 15000 nM.

As to `COCCN1CCN(c2ccc(C(C(=O)NO)c3ccccc3)cc2)CC1` (stereo not drawn) [Compound 5-100, N-hydroxy-2-(4-(4-(2-methoxyethyl)piperazin-1-yl)phenyl)-2-phenylacetamide], the concentration for half-maximal inhibition (IC50) was under 1000 nM.

With `N#Cc1ccccc1COc1ccc(C(C(=O)NO)c2ccccc2)cc1` (stereo not drawn) [Compound 3-61, 2-(4-(2-cyanobenzyloxy)phenyl)-N-hydroxy-2-phenylacetamide], the IC50 was under 1000 nM.

Turning to `O=C(NO)C(c1ccccc1)c1cccc(NCc2ccncc2)c1` (stereo not drawn) [Compound 2-81, N-hydroxy-2-phenyl-2-(3-(pyridin-4-ylmethylamino)phenyl)acetamide], the IC50 is under 1000 nM.

With `O=C(NO)C(c1ccccc1)c1cccc(-c2ccncc2)c1` (stereo not drawn) [Compound 5-30, N-hydroxy-2-phenyl-2-(3-(pyridin-4-yl)phenyl)acetamide], the IC50 was under 1000 nM.

As for `CCc1ccc(-c2cccc(C(C(=O)NO)c3ccccc3)c2)cc1` (stereo not drawn) [Compound 2-102, 2-(4′-ethylbiphenyl-3-yl)-N-hydroxy-2-phenylacetamide], the IC50 is under 1000 nM.

For the compound `O=C(NO)C(c1ccc(N2CCOCC2)cc1)c1cccc(O)c1` (stereo not drawn) [Compound 6-23, N-hydroxy-2-(3-hydroxyphenyl)-2-(4-morpholinophenyl)acetamide], the half-inhibitory concentration (IC50) is under 1000 nM.
